Results from PubChem BioAssay AID1117319 (Southern Research Institute, 2015).
Records with an inconclusive call do not appear.

Target: Virion infectivity factor (Human immunodeficiency virus type 1 group M subtype B (isolate BH10)) + Virion infectivity factor (Human immunodeficiency virus type 1 group M subtype B (isolate BRU/LAI)) + Virion infectivity factor (Human immunodeficiency virus type 1 group M subtype B (isolate PCV12)) + Virion infectivity factor (Human immunodeficiency virus type 1 group M subtype B (isolate HXB2)) + DNA dC->dU-editing enzyme APOBEC-3G (Homo sapiens) (UniProt P69720+P69721+P69722+P69723+Q9HC16)
Assay: HIV-1 Vif–A3G interaction blockers – biochemical, TR-FRET, GST-Vif 1-94, biotin-A3G peptide, dose response retest, primary screen (AID 1117319);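 note: Vif residues 1-94 fused to GST binding biotinylated APOBEC3G peptide 110-148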
Details: TR-FRET GST-Vif / biotin-A3G peptide binding

O/N=C1\CCC\C1=C/c1ccco1
IC50: 7.57 µM

Cc1cc(C)c(S(=O)(=O)NCC2CCC(C(=O)N3CCC4(CC3)OCCO4)CC2)c(C)c1 (configuration not stated)
IC50: 39.6 µM

CC(C)CN(C(=O)CN1CCN(c2ccc(O)cc2)CC1)c1c(N)n(CC(C)C)c(=O)[nH]c1=O
IC50: 12.3 µM

O=C1/C(=C\c2ccco2)NC(=S)N1c1ccccc1
IC50: 16.4 µM

CCN(CC)c1ccc(C=Nc2ccc(N(C)C)cc2)c(O)c1
IC50: 35.7 µM

O=C(CCc1c[nH]c2ccccc12)N1CCN(c2ccc(O)cc2)CC1
IC50: 13.3 µM

O=C1NC(=S)N(c2ccc(F)cc2)C(=O)/C1=C\c1ccoc1
IC50: 18.8 µM

O=C1NC(=O)N(Cc2ccccc2)C(=O)/C1=C\C=C\c1ccco1
IC50: 4 µM

O=C(NCCc1c[nH]c2ccccc12)c1ccc(S(=O)(=O)NCc2ccco2)cc1
IC50: 33.3 µM

CCn1c2ccccc2c2cc(NC(=O)c3ccccc3[N+](=O)[O-])ccc21
IC50: 14.7 µM

O=C(O)Cc1ccc(N=Nc2c(O)c(C(=O)O)cc3ccccc23)cc1
IC50: 10.5 µM

O=[N+]([O-])c1ccc(Cl)c(S(=O)(=O)Nc2cccc(S(=O)(=O)NC3=NCCC3)c2)c1
IC50: 5.64 µM

Cc1ccc(S(=O)(=O)OCC(=O)Nc2ccc(C(=O)O)c(O)c2)cc1
IC50: 64.1 µM

Cc1c(O)cc2c(c1O)C(=O)CC(c1ccc(O)cc1)O2 (configuration not stated)
IC50: 2.68 µM

Cc1cccc(C)c1NS(=O)(=O)c1c(C)[nH]c(=O)[nH]c1=O
IC50: 85.4 µM

O=C(Nc1ccccc1-c1nnn(CC(=O)N2CCc3ccccc3C2)n1)C1CCC1
IC50: 91 µM

O=C1CCCC/C1=C/Nc1ccc2c(c1)OCO2
IC50: 5.94 µM

CC(=C\c1ccco1)/C=C1/SC(=S)N(CC(=O)O)C1=O
IC50: 14.7 µM

CC(C)NC(=O)c1cc(-c2ccco2)nn1-c1ccc(Cl)cc1
IC50: 13.5 µM

CCc1ccc(CC)c(S(=O)(=O)Nc2ccc(C(=O)O)c(O)c2)c1
IC50: 35.3 µM

Oc1ccc(N=Cc2ccc(OCc3ccccc3)cc2)cc1
IC50: 2.11 µM

CN=c1scc(-c2cccs2)n1/N=C/c1ccc(O)c(O)c1O
IC50: 1.95 µM

Cn1c(SCC(=O)c2cc(Cl)c(Cl)s2)nnc1-c1ccco1
IC50: 30.7 µM

CC(C)CCNC(=O)c1ccc2c(SCC(=O)O)c3c(nc2c1)CCC3
IC50: 59.8 µM

CN(C)c1ccc(Cc2cc3c(O)ccc(O)c3cc(Cc3ccc(N(C)C)cc3)c2=O)cc1
IC50: 0.87 µM

CCOC(=O)N1CC=C2C(C#N)=C(N)C(C#N)(C#N)[C@H](c3cccs3)[C@H]2C1
IC50: 4.68 µM

CCOc1cccc(=O)c2c(C)n(Cc3ccco3)c(C)c12
IC50: 0.45 µM

O=C(CCS(=O)(=O)c1ccc(Br)cc1)N1CCN(c2ccc(F)cc2)CC1
IC50: 52.8 µM

Cc1ccc(C)c(/C(O)=C2/C(=O)C(=O)N(CCN3CCOCC3)C2c2ccco2)c1 (configuration not stated)
IC50: 18.1 µM

CC(C)(Oc1ccc(Cl)cc1)C(=O)NCc1ccco1
IC50: 43.1 µM

COc1ccc(OC)c(C2C(C(=O)Nc3ccc(F)cc3)=C(C)Nc3nc(CCCO)nn32)c1 (configuration not stated)
IC50: 54.6 µM

Cc1cccc(-n2nc3c(c2NC(=O)c2ccc(Br)o2)CSC3)c1
IC50: 63.6 µM

O=C1C=C(N2CC2)c2ccccc2C1=O
IC50: 11.3 µM

N#C/C=C\Oc1ccc(Cl)cc1N
IC50: 50.3 µM

Cc1ccc(C(=O)O)cc1-c1ccc(/C=C2/NC(=O)N(c3ccccc3)C2=O)o1
IC50: 25.5 µM

CCCc1cc(=O)oc2cc(C)c(CN3CCCC3)c(O)c12
IC50: 3.46 µM

O=[N+]([O-])c1ccc(/C=N/Nc2nc(N3CCCC3)nc(N3CCCC3)n2)o1
IC50: 54.2 µM

CC1=CC(C)(C)Nc2ccc(OC(=O)CN3C(=O)c4cccc5cccc(c45)C3=O)cc21
IC50: 1.99 µM

CCOC(=O)C1=C(N)n2c(s/c(=C\c3ccco3)c2=O)=C(C(=O)OCC)C1c1ccco1 (configuration not stated)
IC50: 1.41 µM

Cc1ccc(C=C2C(Cl)=C(Cl)C(Cl)=C2Cl)cc1
IC50: 2.1 µM

Cc1cc([N+](=O)[O-])cc2c1NC(c1ccccn1)C1CC=CC21 (configuration not stated)
IC50: 3.03 µM

O=C(O)CCCNc1cc(N2CCC3(CC2)OCCO3)c2noc3c2c1C(=O)c1ccccc1-3
IC50: 0.97 µM

C=C(C)C(=O)Nc1cccc(C2=NOC3(C2)C[C@@H](C(N)=O)N(C(=O)CC(c2ccccc2)c2ccccc2)C3)c1 (some centres not stated)
IC50: 3.06 µM

Cc1nn(Cc2ccccc2)c(C)c1C(=O)OCC(=O)c1cc(C)n(C2CC2)c1C
IC50: 80.5 µM

Cn1cccc1/C=C1/C(=O)NC(=S)N(Cc2ccc(F)cc2)C1=O
IC50: 1.24 µM

CCN1/C(=C/C=C/C=C/C=C/c2sc3ccccc3[n+]2CC)Sc2ccccc21
IC50: 4.33 µM

O=C(CCN1CCN(c2ccccc2)CC1)N/N=C/c1ccc(O)c(O)c1O
IC50: 1.02 µM

O=C(NC(=S)N1CCCc2ccccc21)c1ccccc1
IC50: 28.4 µM

N#Cc1c(-c2ccco2)cc(-c2ccccc2)[nH]c1=O
IC50: 14 µM

COc1ccc(OCCOC(=O)c2cccc(-n3cnnn3)c2)cc1
IC50: 93.6 µM

Cc1cc(-c2n[nH]c(=S)n2/N=C/C=C/c2ccco2)n[nH]1
IC50: 6.02 µM

Nc1ccc(Oc2ncccn2)cc1
IC50: 24.4 µM

CCC(C)NC(=O)Cc1cn(C)c2ccccc12 (configuration not stated)
IC50: 87.5 µM

COCOC1CCC2C3CCC4=CC(=O)CCC4=C3C=CC12C (configuration not stated)
IC50: 23.2 µM

COc1ccc(CN2C(=O)NC(=O)/C(=C/c3ccc([N+](=O)[O-])s3)C2=O)cc1
IC50: 14.5 µM

CC(CNc1ccccc1O)C(=O)O (configuration not stated)
IC50: 6.17 µM

CCOc1ccccc1C(=O)NCC(=O)OCC(=O)NCCc1ccc(S(N)(=O)=O)cc1
IC50: 75.8 µM
